In patent US9409952B2, “Peptide-compound cyclization method” (Chugai Seiyaku Kabushiki Kaisha, priority 2011, dated 2016):
Read-outs that look alike come from different tables or passages of the source. Starred links: 1 amine or outer side, 2 acyl side, 3 side chain; linkers in the order of their positions; H or OH if unused. Positions of bridges follow the written chain, without caps; N, C: chain ends. Non-standard residues stand in square brackets, D forms with d. Residues, ends and D or L forms follow the SMILES beside them. *: point of attachment. X2 = O=C(C[C@H](N[*:1])C(F)(F)F)[*:2]; NMeF = CN[C@@H](Cc1ccccc1)C(=O)O; Aoc(2) = CCCCCC[C@H](N)C(=O)O; NMeL = CN[C@@H](CC(C)C)C(=O)O; NMeS = CN[C@@H](CO)C(=O)O; NMeA = CN[C@@H](C)C(=O)O; Piperidide = C1CCN(*)CC1; β3hA = C[C@H](N)CC(=O)O; Abu = CC[C@H](N)C(=O)O; Sar = CNCC(=O)O

How the values were obtained:
[1] = PAMPA (parallel artificial membrane permeability assay); format: in vitro ADME; details: for Papp at 18 hours, 50 µM: PAMPA
Procedure, shortened: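 Artificial membrane was 10% (w/v) egg lecithin plus 0.5% (w/v) cholesterol in dodecane on a PVDF filter. A 10 mM DMSO stock was added at 0.5% (v/v) to donor buffer (50 mM MOPSO, pH 6.5, 5.0% glycocholic acid). After 18 h at 37 °C, LC/MS or LC/UV gave donor and acceptor levels for Pe.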

[2] = Metabolic stability in human hepatic microsome; format: in vitro ADME; details: microsomes
[3] = membrane permeation rate (Pe), 50 mM MOPSO buffer pH 6.5 with 5.0% glycocholic acid, 37° C., 18 hours, read-out: iPAMPA Pe
[4] = pH 7.4, human hepatic microsome, NADPH(+), read-out: CL NADPH(+)

| SMILES | Papp at 18 hours, 50 µM [1, 3] | microsomal CLint at 1 uM [2, 4] | iPAMPA Pe ([1]; membrane permeation rate (Pe), 50 mM MOPSO buffer pH 6.5 with 5.0% glycocholic acid, 37° C., 18 hours) | Papp at 18 hours, 50 µM ([1]; pH 6.5) | microsomal CLint at 1 uM ([2]; human, pH 7.4, CL NADPH(+)) |
| --- | --- | --- | --- | --- | --- |
| CCCCCC[C@@H]1NC(=O)[C@H](CO)N(C)C(=O)[C@H](CC(C)C)N(C)C(=O)[C@H](CC(C)C)N(C)C(=O)[C@H](CC(C)C)N(C)C(=O)[C@@H](C)NC(=O)[C@H](CC)NC(=O)[C@H](CC(C)C)N(C)C(=O)C[C@H](C)NC(=O)[C@H](CC(C)C)N(C)C(=O)CN(C)C1=O [DP-645] (cyclo([Abu][dA][NMeL][NMeL][NMeL][NMeS][Aoc(2)][Sar][NMeL][β3hA][NMeL])) | 49 ×10⁻⁶ cm/s | 74 µL/min/mg | – | – | – |
| CCCCCC[C@@H]1NC(=O)[C@H](CC(C)C)N(C)C(=O)C[C@H](C)NC(=O)[C@H](CC)NC(=O)[C@H](CO)N(C)C(=O)[C@H](CC(C)C)N(C)C(=O)[C@H](CC(C)C)N(C)C(=O)[C@H](CC(C)C)N(C)C(=O)[C@@H](C)NC(=O)[C@H](C)NC(=O)[C@H](CC(C)C)N(C)C1=O [DP-646] (cyclo(A[dA][NMeL][NMeL][NMeL][NMeS][Abu][β3hA][NMeL][Aoc(2)][NMeL])) | 29 ×10⁻⁶ cm/s | 139 µL/min/mg | – | – | – |
| CCCCCC[C@@H]1NC(=O)[C@H](CC(C)C)N(C)C(=O)CN(C)C(=O)[C@H](CC(C)C)NC(=O)C[C@H](C)NC(=O)[C@H](CC(C)C)N(C)C(=O)[C@H](CC(C)C)N(C)C(=O)[C@H](CC(C)C)N(C)C(=O)[C@@H](C)NC(=O)[C@H](CO)NC(=O)[C@H](CC(C)C)N(C)C1=O [DP-647] (cyclo([Aoc(2)][NMeL]S[dA][NMeL][NMeL][NMeL][β3hA]L[Sar][NMeL])) | 29 ×10⁻⁶ cm/s | 132 µL/min/mg | – | – | – |
| CCCCCC[C@@H]1NC(=O)[C@H](CO)N(C)C(=O)C[C@H](C)NC(=O)[C@H](CC(C)C)N(C)C(=O)[C@H](CC(C)C)N(C)C(=O)[C@@H](CC(C)C)NC(=O)[C@H](CC)NC(=O)[C@H](CC(C)C)N(C)C(=O)[C@H](C(C)C)NC(=O)[C@H](CC(C)C)N(C)C(=O)CN(C)C1=O [DP-648] (cyclo([Abu][dL][NMeL][NMeL][β3hA][NMeS][Aoc(2)][Sar][NMeL]V[NMeL])) | 53 ×10⁻⁶ cm/s | 109 µL/min/mg | – | – | – |
| CC(C)C[C@@H]1NC(=O)[C@H](CO)N(C)C(=O)[C@H](CC(C)C)N(C)C(=O)[C@H](CC(C)C)N(C)C(=O)[C@H](CC(C)C)N(C)C(=O)[C@@H](C)NC(=O)[C@H](C)NC(=O)[C@H](CC(C)C)N(C)C(=O)C[C@H](C)NC(=O)[C@H](CC(C)C)N(C)C(=O)CN(C)C1=O [DP-649] (cyclo(A[dA][NMeL][NMeL][NMeL][NMeS]L[Sar][NMeL][β3hA][NMeL])) | 22 ×10⁻⁶ cm/s | 27 µL/min/mg | – | – | – |
| CC[C@@H]1NC(=O)[C@H](CO)N(C)C(=O)[C@H](CC(C)C)N(C)C(=O)[C@H](CC(C)C)N(C)C(=O)[C@H](CC(C)C)N(C)C(=O)[C@@H](CC(C)C)NC(=O)[C@H](C)NC(=O)[C@H](CC(C)C)N(C)C(=O)[C@H](C)NC(=O)[C@H](CC(C)C)N(C)C(=O)C[C@H](C)NC1=O [DP-650] (cyclo(A[NMeL]A[dL][NMeL][NMeL][NMeL][NMeS][Abu][β3hA][NMeL])) | 26 ×10⁻⁶ cm/s | 33 µL/min/mg | – | – | – |
| CC[C@@H]1NC(=O)C[C@H](C)NC(=O)[C@H](CC(C)C)N(C)C(=O)[C@H](CC(C)C)N(C)C(=O)[C@H](CC(C)C)N(C)C(=O)[C@@H](C)NC(=O)[C@H](CO)NC(=O)[C@H](CC(C)C)N(C)C(=O)[C@H](CC(C)C)NC(=O)[C@H](CC(C)C)N(C)C(=O)CN(C)C1=O [DP-651] (cyclo([Abu][Sar][NMeL]L[NMeL]S[dA][NMeL][NMeL][NMeL][β3hA])) | 24 ×10⁻⁶ cm/s | 68 µL/min/mg | – | – | – |
| CC(C)C[C@@H]1NC(=O)[C@H](CO)N(C)C(=O)C[C@H](C)NC(=O)[C@H](CC(C)C)N(C)C(=O)[C@H](CC(C)C)N(C)C(=O)[C@@H](C)NC(=O)[C@H](C(C)C)NC(=O)[C@H](CC(C)C)N(C)C(=O)[C@H](C(C)C)NC(=O)[C@H](CC(C)C)N(C)C(=O)CN(C)C1=O [DP-652] (cyclo(L[Sar][NMeL]V[NMeL]V[dA][NMeL][NMeL][β3hA][NMeS])) | 30 ×10⁻⁶ cm/s | 51 µL/min/mg | – | – | – |
| CC(C)C[C@@H]1NC(=O)[C@H](CC(C)C)N(C)C(=O)[C@H](C(C)C)NC(=O)[C@H](CC(C)C)N(C)C(=O)CN(C)C(=O)[C@H](C(C)C)NC(=O)[C@H](CO)N(C)C(=O)[C@H](CC(C)C)N(C)C(=O)C[C@H](C)NC(=O)[C@H](CC(C)C)N(C)C(=O)[C@@H](C)NC1=O [DP-653] (cyclo(L[dA][NMeL][β3hA][NMeL][NMeS]V[Sar][NMeL]V[NMeL])) | 33 ×10⁻⁶ cm/s | 235 µL/min/mg | – | – | – |
| CC[C@@H]1NC(=O)[C@H](CO)N(C)C(=O)[C@H](CC(C)C)N(C)C(=O)[C@H](CC(C)C)N(C)C(=O)[C@H](CC(C)C)N(C)C(=O)[C@@H](C)NC(=O)[C@H](C)NC(=O)[C@H](CC(C)C)N(C)C(=O)[C@H](CC)NC(=O)[C@H](CC(C)C)N(C)C(=O)C[C@@H](C(F)(F)F)NC1=O [DP-655] (cyclo(A[dA][NMeL][NMeL][NMeL][NMeS][Abu][X2][NMeL][Abu][NMeL])) | 34 ×10⁻⁶ cm/s | 62 µL/min/mg | – | – | – |
| CC(C)C[C@@H]1NC(=O)[C@H](CO)N(C)C(=O)C[C@@H](C(F)(F)F)NC(=O)[C@H](CC(C)C)N(C)C(=O)[C@H](CC(C)C)N(C)C(=O)[C@@H](C)NC(=O)[C@H](C)NC(=O)[C@H](CC(C)C)N(C)C(=O)[C@H](CC(C)C)NC(=O)[C@H](CC(C)C)N(C)C(=O)CN(C)C1=O [DP-657] (cyclo(A[dA][NMeL][NMeL][X2][NMeS]L[Sar][NMeL]L[NMeL])) | 24 ×10⁻⁶ cm/s | 157 µL/min/mg | – | – | – |
| CC(C)C[C@H](NC(=O)[C@H](Cc1ccccc1)N(C)C(=O)[C@@H]1CC(=O)N[C@H](C)C(=O)N[C@@H](C(C)C)C(=O)N(C)[C@@H](Cc2ccccc2)C(=O)N(C)[C@@H](CC(C)C)C(=O)N(C)[C@@H](C)C(=O)N[C@@H]([C@@H](C)O)C(=O)N[C@@H](Cc2ccccc2)C(=O)N1)C(=O)N[C@@H](C)C(=O)N1CCCCC1 [DP-658] ([dA]V[NMeF][NMeL][NMeA]TFD[NMeF]LA-Piperidide; lactam N-8) | 32 ×10⁻⁶ cm/s | 86 µL/min/mg | – | – | – |
| CC[C@H](C)[C@@H]1NC(=O)[C@H](CC(C)C)N(C)C(=O)CN(C)C(=O)[C@H]([C@@H](C)O)NC(=O)[C@H](C)N(C)C(=O)C[C@@H](C(=O)N(C)[C@@H](C)C(=O)N[C@@H](CC(C)C)C(=O)N[C@H](C(=O)N(C)[C@@H](C)C(=O)N[C@@H](C)C(=O)N2CCCCC2)C(C)C)NC(=O)[C@H](CC(C)C)N(C)C(=O)[C@H](Cc2ccccc2)N(C)C(=O)[C@H](CC(C)C)N(C)C1=O [DP-659] ([NMeA]T[Sar][NMeL]I[NMeL][NMeF][NMeL]D[NMeA]LV[NMeA]A-Piperidide; lactam N-9) | 22 ×10⁻⁶ cm/s | 13 µL/min/mg | – | – | – |
| CC[C@H](C)[C@@H]1NC(=O)[C@H](CC(C)C)N(C)C(=O)CN(C)C(=O)[C@H]([C@@H](C)O)NC(=O)[C@H](C)N(C)C(=O)C[C@@H](C(=O)N(C)[C@@H](Cc2ccccc2)C(=O)N(C)[C@@H](C)C(=O)N[C@H](C(=O)N[C@@H](C)C(=O)N2CCCCC2)C(C)C)NC(=O)[C@H](CC(C)C)N(C)C(=O)[C@H](Cc2ccccc2)N(C)C(=O)[C@H](CC(C)C)N(C)C1=O [DP-660] ([NMeA]T[Sar][NMeL]I[NMeL][NMeF][NMeL]D[NMeF][NMeA]VA-Piperidide; lactam N-9) | 27 ×10⁻⁶ cm/s | 222 µL/min/mg | – | – | – |
| CC[C@H](C)[C@@H]1NC(=O)[C@H](CC(C)C)N(C)C(=O)CN(C)C(=O)[C@H]([C@@H](C)O)NC(=O)[C@H](C)N(C)C(=O)C[C@@H](C(=O)N(C)[C@@H](C)C(=O)N2CCC[C@H]2C(=O)N[C@@H](C)C(=O)N2CCCCC2)NC(=O)[C@H](CC(C)C)N(C)C(=O)[C@H](Cc2ccccc2)N(C)C(=O)[C@H](CC(C)C)N(C)C1=O [DP-661] ([NMeA]T[Sar][NMeL]I[NMeL][NMeF][NMeL]D[NMeA]PA-Piperidide; lactam N-9) | 25 ×10⁻⁶ cm/s | 17 µL/min/mg | – | – | – |
| CC[C@H](C)[C@@H]1NC(=O)[C@H](CC(C)C)N(C)C(=O)CN(C)C(=O)[C@H]([C@@H](C)O)NC(=O)[C@H](C)N(C)C(=O)C[C@@H](C(=O)N[C@@H](C)C(=O)N2CCC[C@H]2C(=O)N[C@@H](C)C(=O)N2CCCCC2)NC(=O)[C@H](CC(C)C)N(C)C(=O)[C@H](Cc2ccccc2)N(C)C(=O)[C@H](CC(C)C)N(C)C1=O [DP-662] ([NMeA]T[Sar][NMeL]I[NMeL][NMeF][NMeL]DAPA-Piperidide; lactam N-9) | 18 ×10⁻⁶ cm/s | 101 µL/min/mg | – | – | – |
| CC[C@H](C)[C@@H]1NC(=O)[C@H](CC(C)C)N(C)C(=O)CN(C)C(=O)[C@H]([C@@H](C)O)NC(=O)[C@H](C)N(C)C(=O)C[C@@H](C(=O)N[C@@H](C)C(=O)N2CCCCC2)NC(=O)[C@H](CC(C)C)N(C)C(=O)[C@H](Cc2ccccc2)N(C)C(=O)[C@H](CC(C)C)N(C)C1=O [DP-664] ([NMeA]T[Sar][NMeL]I[NMeL][NMeF][NMeL]DA-Piperidide; lactam N-9) | – | 304 µL/min/mg | 7.0E−05 | – | – |
| CC[C@H](C)[C@@H]1NC(=O)[C@H](C)NC(=O)C[C@@H](C(=O)N(C)[C@@H](C)C(=O)N[C@H](C(=O)N2CCC[C@H]2C(=O)N[C@H](C(=O)N[C@@H](C)C(=O)N2CCCCC2)C(C)C)[C@@H](C)CC)NC(=O)[C@@H]2CCCN2C(=O)[C@H](CC(C)C)NC(=O)[C@H](Cc2ccccc2)N(C)C(=O)[C@H]([C@@H](C)O)NC(=O)[C@H](Cc2ccccc2)N(C)C(=O)[C@H](C)N(C)C1=O [DP-665] (AI[NMeA][NMeF]T[NMeF]LPD[NMeA]IPVA-Piperidide; lactam N-9) | – | – | – | 4 ×10⁻⁶ cm/s | 77 µL/min/mg |
